Experimental data from patent US10639287B2, “Compounds for the treatment of mitochondrial diseases” (UNIVERSITE PARIS-SUD, priority 2014, dated 2020).

Key:
[1] = system: mip1^G651S and mip1^A692T yeast mutants, Δsml1; test: Small colony frequency in mip1 strains with or without SML1 deletion (mtDNA stability); assay type: cell-based, Saccharomyces cerevisiae; conditions: 32 μM
Protocol: Deletion of the SML1 gene encoding the inhibitor of RNRI (ribonucleotide diphosphate reductase, enzyme limiting the synthesis pathway of dNTPs) is known to be a genetic suppressor of the instability of the mtDNA caused by mutations in the MIP1 gene (Wang P J, Chabes A, Casagrande R, Tian X C, Thelander L and Huffaker T C. (1997) Rnr4p a novel ribonucleotide reductase small-subunit protein. Mol Cell Biol, 17, 6114-6121).
The frequency of the small colonies was determined for the mip1^G651S and mip1^A692T strains, whether deleted or not from the SML1 gene and in the presence of 32 μM clofilium tosylate or DMSO.
From pre-cultures in selective medium (SC-TRP, 2% ethanol (v/v)) of mutated mip1 strains, 2.10^5 cells/mL were seeded in 2 mL of rich YPD medium in the presence of 32 μM clofilium tosylate or DMSO, then incubated at 28° C. for 24 hours. The cells were then diluted to have about 200 to 250 cells per dish and were spread on differential synthetic medium (SC-TRP, 0.3% glucose, 2% ethanol). The number of small colonies was calculated after 5 days of incubation at 28° C.

[2] = Maximum solubility in yeast culture; assay type: physicochemical; conditions: 28 °C; in YPD yeast culture; read-out: maximum concentration (maximum solubility)
Protocol: From o/n pre-culture in selective medium (SC-URA, 2% ethanol (v/v)), 50 mL of rich YPD medium (1% Yeast Extract, 0.5% Bacto Peptone, 2% Glucose) were seeded at a DO600 of 0.05/mL. The 50 mL of culture were distributed in a series of ten tubes on the basis of 2 mL of culture/tube, with 4 mL of culture being placed in the last tube. […] From this tube (tube 1), 2 mL of culture were placed into tube 2. Tube 2 contained 4 ml of culture and clofilium tosylate at a concentration of 256 μM. 2 mL of tube 2 were added to tube 3, and so on. Each tube contained the drug at a concentration equal to half that of the previous tube. Two controls were provided—without clofilium tosylate and with DMSO (the volume being the same as that used to dilute the clofilium tosylate). The cultures were incubated at 28° C. with stirring for 24 hours, and the optical density (DO600) was measured.

[3] = system: polg-1(ok1458Δ/+) strain; test: Non-toxic concentration (MIC) in nematode, larval development over 4 days, polg-1 mutated line; assay type: in vivo, Caenorhabditis elegans; conditions: 1 μM to 50 μM
Protocol: A series of NGM dishes containing clofilium tosylate at concentrations of 1 μM, 5 μM, 10 μM, 50 μM, 100 μM or 200 μM were prepared (three dishes for each concentration). Between 30 and 40 synchronised L1 larvae of the wild-type N2 BRISTOL line or mutated VC1224 line (polg-1(ok1458Δ/+)/mT1 II; +/mT1 [dpy-10(el28)] II), these being nematodes carrying a heterozygous deletion of 2149 bp in the sequence encoding the polg-1 gene, were deposited on each of these dishes.

[4] = system: haploinsufficient TB2143 nematodes (polg-1(ok1458Δ/+)); test: Test for resistance to ethidium bromide of haploinsufficient polg-1 nematodes; assay type: in vivo, Caenorhabditis elegans; conditions: 50 μM, 30 μg/mL ethidium bromide, 4 days
Excerpt: Ethidium bromide is an intercalating agent of DNA, especially of mtDNA, rich in adenine and thymidine. At high concentrations it halts the development of the worms at stage L3 (Addo, M. G., Cossard, R., Pichard, D., Obiri-Danso, K., Rötig, A. and Delahodde, A. (2010) Caenorhabditis elegans, a pluricellular model organism to screen new genes involved in mitochondrial genome maintenance. BBA-Mol. Basis Dis., 1802, 765-773. The haploinsufficient TB2143 nematodes (polg-1(ok1458Δ/+)) are highly sensitive to low doses of ethidium bromide (30 μg/mL) with 90% of the larvae halted at stage L3.
Around thirty wild-type larvae or larvae mutated in polg-1 (TB2143 line (polg-1(ok1458Δ/+))) synchronised at stage L1 were deposited on NGM dishes containing 30 μg mL ethidium bromide and either DMSO or 50 μM clofilium tosylate (experiment performed in triplicate). Larval development was examined after 4 days of treatment.

[5] = system: mutated mip1 yeast strains; test: Production of small colonies in mutated mip1 yeast strains; assay type: cell-based, Saccharomyces cerevisiae
Protocol: The rate of small cells in a population represents the cells not breathing due to rearrangements of the mtDNA and/or having lost their mtDNA.
From a pre-culture in selective medium (SC-TRP, 2% ethanol (v/v)) of the mutated mip1 strain, 2.10^5 cells/mL were seeded in 2 mL of rich YPD medium (1% Yeast Extract, 0.5% Bacto Peptone, 2% Glucose) in the presence of 32 μM clofilium tosylate or DMSO. The cells were then incubated at 28° C. for two cycles of 24 hours. The cells were then diluted to have about 200 to 250 cells per dish and spread on differential synthetic medium (SC-TRP, 0.3% glucose, 2% ethanol). The number of small colonies was calculated after 6 days of incubation at 28° C. (Baruffini, E., Lodi, T., Dallabona, C., Puglisi, A., Zeviani, M. and Ferrero, I. (2006) Genetic and Chemical rescue of the Saccharomyces cerevisiae phenotype induced by mitochondrial DNA polymerase mutations associated with progressive external ophthalmoplegia in humans. Hum. Mol. Genet., 15, 2846-2855).
The effect of the clofilium tosylate on the production of small colonies was measured in 8 recessive mip1 mutants:
an in 3 dominant mip1 mutants: • Y757C (mutated domain: polymerase) • K749R (mutated domain: polymerase) • E698G (mutated domain: polymerase)

CCCCCCC[N+](CC)(CC)CCCCc1ccc(Cl)cc1.Cc1ccc(S(=O)(=O)[O-])cc1 [clofilium tosylate]
stability of the mtDNA, clofilium tosylate together with availability of dNTPs (SML1 deletion) [1]: additive effect
solubility [2]: 512 µM
larval development [3]: developed similarly
resistance to ethidium bromide [4]: increased resistance
production of small colonies of the mutant mip1^G651S yeast strain ([5]; 32 μM vs DMSO): reduced the production of small colonies
production of cells not breathing (small colonies) in recessive and dominant mip1 mutants ([5]; 32 μM, irrespective of mutated MIP1 domain, except mutations producing more than 90% of small colonies): reduced the production of cells not breathing
